Measurements reported in patent US7811797B2, “α-isomaltosylglucosaccharide-forming enzyme, process and uses of the same” (Kabushiki Kaisha Hayashibara Seibutsu Kagaku Kenkyujo, priority 2000, dated 2010).

Experiments:
Design in all cases: key: −: no saccharide-transferred product was detected through transfer reaction to acceptor; ∀: a saccharide-transferred product was detected in an amount less than one percent through transfer reaction to acceptor; +: a saccharide-transferred product was detected in an amount over one percent but less than ten percent through transfer reaction to acceptor; ++: a saccharide-transferred product was detected in an amount over ten percent through transfer reaction to acceptor
[1] = system: α-isomaltosylglucosaccharide-forming enzyme; assay: Transfer-acceptor specificity, Enzyme of Strain A19; format: biochemical, Arthrobacter globiformis A19; conditions: acceptor 1.6%, PINE-DEX #100 donor 4%, one unit/g donor, 30° C., pH 8.4, 24 hours
Experimental: (§1) Using different saccharides, it was tested whether the saccharides were used as transferring-acceptors for the α-isomaltosylglucosaccharide-forming enzyme of the present invention. A solution of D-glucose, D-xylose, L-xylose, D-galactose, D-fructose, D-mannose, D-arabinose, D-fucose, D-psicose, L-sorbose, L-rhamnose, methyl-α-glucopyranoside, methyl-β-glucopyranoside, N-acetyl-glucosamine, sorbitol, trehalose, isomaltose, isomaltotriose, cellobiose, gentibiose, glycerol, maltitol, lactose, sucrose, α-cyclodextrin, β-cyclodextrin, γ-cyclodextrin, or L-ascorbic acid was prepared.
(§2) To each solution with a saccharide concentration of 1.6% was added “PINE-DEX #100”, a partial starch hydrolysate, as a saccharide donor, to give a concentration of 4%, and admixed with one unit/g saccharide donor, d.s.b., of either of purified specimens of α-isomaltosylglucosaccharide-forming enzyme from Bacillus globisporus C9 obtained by the method in Experiment 4-2, Bacillus globisporus C11 obtained by the method in Experiment 7-2, Bacillus globisporus N75 obtained by the method in Experiment 11-2, or Arthrobacter globiformis A19 obtained by the method in Experiment 15-2, and incubated at 30° C. and pH 6.0, except that pH 8.4 was used for the enzyme from Arthrobacter globiformis A19, for 24 hours. The reaction mixtures of the post-enzymatic reactions were analyzed on gas chromatography (abbreviated as “GLC” hereinafter) for monosaccharides and disaccharides as acceptors, and on HPLC for trisaccharides as acceptors to confirm whether these saccharides could be used as their transfer acceptors. In the case of performing GLC, the following apparatuses and conditions are used: GLC apparatus, “GC-16A” commercialized by Shimadzu Corporation, Tokyo, Japan; column, a stainless-steel column, 3 mm in diameter and 2 m in length, packed with 2% “SILICONE OV-17/[…]”, commercialized by GL Sciences Inc., Tokyo, Japan; carrier gas, nitrogen gas at a flow rate of 40 ml/min under temperature conditions of increasing from 160° C. to 320° C. at an increasing temperature rate of 7.5° C./min; and detection, a hydrogen flame ionization detector. In the case of HPLC analysis, the apparatuses and conditions used are: HPLC apparatus, “CCPD” commercialized by Tosoh Corporation, Tokyo, Japan; column, “ODS-AQ-303” commercialized by YMC Co., Ltd., Tokyo, Japan; eluent, water at a flow rate of 0.5 ml/min; and detection, a differential refractometer.

[2] = system: α-isomaltosylglucosaccharide-forming enzyme; assay: Transfer-acceptor specificity, Enzyme of Strain C11; format: biochemical, Bacillus globisporus C11; conditions: acceptor 1.6%, PINE-DEX #100 donor 4%, one unit/g donor, 30° C., pH 6.0, 24 hours
Experimental: as §1, §2

[3] = system: α-isomaltosylglucosaccharide-forming enzyme; assay: Transfer-acceptor specificity, Enzyme of Strain N75; format: biochemical, Bacillus globisporus N75; conditions: acceptor 1.6%, PINE-DEX #100 donor 4%, one unit/g donor, 30° C., pH 6.0, 24 hours
Experimental: as §1, §2

[4] = system: α-isomaltosylglucosaccharide-forming enzyme; assay: Transfer-acceptor specificity, Enzyme of Strain C9; format: biochemical, Bacillus globisporus C9; conditions: acceptor 1.6%, PINE-DEX #100 donor 4%, one unit/g donor, 30° C., pH 6.0, 24 hours
Experimental: as §1, §2

SMILES | Product of transferring reaction, Enzyme of Stain A19 [1] | Product of transferring reaction, Enzyme of Strain C11 [2] | Product of transferring reaction, Enzyme of Strain N75 [3] | Product of transferring reaction, Enzyme of Strain C9 [4]
O=C[C@H](O)[C@@H](O)[C@H](O)CO [D-Xylose] | + (a saccharide-transferred product was detected in an amount over one percent but less than ten percent through transfer reaction to acceptor) | ++ (a saccharide-transferred product was detected in an amount over ten percent through transfer reaction to acceptor) | ++ (a saccharide-transferred product was detected in an amount over ten percent through transfer reaction to acceptor) | ++ (a saccharide-transferred product was detected in an amount over ten percent through transfer reaction to acceptor)
OC[C@H]1O[C@@H]2O[C@H]3[C@H](O)[C@@H](O)[C@@H](O[C@H]4[C@H](O)[C@@H](O)[C@@H](O[C@H]5[C@H](O)[C@@H](O)[C@@H](O[C@H]6[C@H](O)[C@@H](O)[C@@H](O[C@H]7[C@H](O)[C@@H](O)[C@@H](O[C@H]1[C@H](O)[C@H]2O)O[C@@H]7CO)O[C@@H]6CO)O[C@@H]5CO)O[C@@H]4CO)O[C@@H]3CO [α-Cyclodextrin] | − | − | − | −
C[C@@H](O)[C@H](O)[C@H](O)[C@@H](O)C=O [D-Fucose] | ∀ (a saccharide-transferred product was detected in an amount less than one percent through transfer reaction to acceptor) | + (a saccharide-transferred product was detected in an amount over one percent but less than ten percent through transfer reaction to acceptor) | + (a saccharide-transferred product was detected in an amount over one percent but less than ten percent through transfer reaction to acceptor) | + (a saccharide-transferred product was detected in an amount over one percent but less than ten percent through transfer reaction to acceptor)
O=C[C@H](O)[C@@H](O)[C@@H](O)[C@H](O)CO [D-Galactose] | ∀ (a saccharide-transferred product was detected in an amount less than one percent through transfer reaction to acceptor) | + (a saccharide-transferred product was detected in an amount over one percent but less than ten percent through transfer reaction to acceptor) | + (a saccharide-transferred product was detected in an amount over one percent but less than ten percent through transfer reaction to acceptor) | + (a saccharide-transferred product was detected in an amount over one percent but less than ten percent through transfer reaction to acceptor)
C[C@H](O)[C@H](O)[C@@H](O)[C@@H](O)C=O [L-Rhamnose] | − | − | − | −
O=C[C@@H](O)[C@H](O)[C@H](O)CO [D-Arabinose] | ∀ (a saccharide-transferred product was detected in an amount less than one percent through transfer reaction to acceptor) | ∀ (a saccharide-transferred product was detected in an amount less than one percent through transfer reaction to acceptor) | ∀ (a saccharide-transferred product was detected in an amount less than one percent through transfer reaction to acceptor) | ∀ (a saccharide-transferred product was detected in an amount less than one percent through transfer reaction to acceptor)
O=C(CO)[C@@H](O)[C@H](O)[C@H](O)CO [D-Fructose] | + (a saccharide-transferred product was detected in an amount over one percent but less than ten percent through transfer reaction to acceptor) | + (a saccharide-transferred product was detected in an amount over one percent but less than ten percent through transfer reaction to acceptor) | + (a saccharide-transferred product was detected in an amount over one percent but less than ten percent through transfer reaction to acceptor) | + (a saccharide-transferred product was detected in an amount over one percent but less than ten percent through transfer reaction to acceptor)
O=C1O[C@H]([C@@H](O)CO)C(O)=C1O [L-Ascorbic acid] | + (a saccharide-transferred product was detected in an amount over one percent but less than ten percent through transfer reaction to acceptor) | + (a saccharide-transferred product was detected in an amount over one percent but less than ten percent through transfer reaction to acceptor) | + (a saccharide-transferred product was detected in an amount over one percent but less than ten percent through transfer reaction to acceptor) | + (a saccharide-transferred product was detected in an amount over one percent but less than ten percent through transfer reaction to acceptor)
CO[C@@H]1O[C@H](CO)[C@@H](O)[C@H](O)[C@H]1O [Methyl-β-glucopyranoside] | ++ (a saccharide-transferred product was detected in an amount over ten percent through transfer reaction to acceptor) | ++ (a saccharide-transferred product was detected in an amount over ten percent through transfer reaction to acceptor) | ++ (a saccharide-transferred product was detected in an amount over ten percent through transfer reaction to acceptor) | ++ (a saccharide-transferred product was detected in an amount over ten percent through transfer reaction to acceptor)
OCC(O)CO [Glycerol] | + (a saccharide-transferred product was detected in an amount over one percent but less than ten percent through transfer reaction to acceptor) | + (a saccharide-transferred product was detected in an amount over one percent but less than ten percent through transfer reaction to acceptor) | + (a saccharide-transferred product was detected in an amount over one percent but less than ten percent through transfer reaction to acceptor) | + (a saccharide-transferred product was detected in an amount over one percent but less than ten percent through transfer reaction to acceptor)
CO[C@H]1O[C@H](CO)[C@@H](O)[C@H](O)[C@H]1O [Methyl-α-glucopyranoside] | ++ (a saccharide-transferred product was detected in an amount over ten percent through transfer reaction to acceptor) | ++ (a saccharide-transferred product was detected in an amount over ten percent through transfer reaction to acceptor) | ++ (a saccharide-transferred product was detected in an amount over ten percent through transfer reaction to acceptor) | ++ (a saccharide-transferred product was detected in an amount over ten percent through transfer reaction to acceptor)
